Data set [1] concerns the target T1, hNcl fragment consisting of RBD1 and 2 (RBD1,2) (Homo sapiens, UniProt P19338).
T1 construct: using an hNcl fragment consisting of RBD1 and 2 (RBD1,2)
The experiment in a line: Surface plasmon resonance with hNcl fragment RBD1,2. In kind it is binding. The following applies: SPR, immobilized RBD1,2, 25 °C. Here is the method:
Moreover, to obtain information concerning the protein region involved in the interaction with 12, a new SPR analysis was carried out using an hNcl fragment consisting of RBD1 and 2 (RBD1,2).
(§1) A Biacore 3000 optical biosensor was used to conduct Surface Plasmon Resonance (SPR) experiments. Proteins (hNcl and RBD 1,2) were dissolved at 100 µg/mL in 50 mM sodium acetate at a pH 4.5 and injected at a flow rate of 5 µL/min on a research-grade CM5 sensor chip (GE Healthcare, Chicago, IL, USA) to achieve immobilization. A standard amine-coupling protocol was used. Compound 12 was dissolved in 100% DMSO to obtain 4 mM solutions and diluted in […] (v/v) in PBS (10 mM NaH2PO4, 137 mM NaCl, 2.7 mM KCl pH 7.4). The final concentration of DMSO was 0.1% (v/v). This stock solution was used as a starting point to produce a four-concentration points series (0.025, 0.2, 1, and 4 µM). Measurements were performed at 25 °C, using a flow rate of 5 µL/min flow rate and adopting an association time of 60 s; dissociation of the complex was monitored for 300 s. The resulting sensorgrams were elaborated through the BIAevaluation software (GE Healthcare). Thermodynamic constants were calculated by adequately fitting the experimental curves with a single-site bimolecular interaction model.
In general terms: Surface plasmon resonance follows binding to a sensor surface in real time, without labels.

Data set [2] relates to HeLa cells. The experiment in a line: Cell cycle analysis by cytofluorimetry (PI staining), HeLa cells. The note with it: 10 μM and 20 μM, 48 h. Format: cell-based, human. The method, then: HeLa cells were seeded at 5.0 × 10^5 in 100 mm culture dishes. The day after, the cells were treated with DMSO and 12 at 10 μM and 20 μM for 48 h. The cell cycle was evaluated by propidium iodide (PI) staining of permeabilized cells (BD FACSCalibur flow cytometer, Becton Dickinson, San Jose, CA, USA). Data from 5000 events per sample were collected. The percentages of the elements in the hypodiploid region and in G0/G1, S, and G2/M phases of the cell cycle were calculated using the CellQuest and MODFIT software, respectively. The apoptosis analysis was carried out according to the protocol described in Annexin V, FITC Apoptosis Detection Kit (Dojindo EU GmbH, Munich, Germany). The samples were detected by Flow Cytometry (BD FACSCalibur flow cytometer, Becton Dickinson, San Jose, CA, USA) and analyzed by BD FACSuite software.

In another data set the test system is Akt. As to the kind of experiment: Western blot of Akt protein in HeLa cells. In kind it is cell-based, human.
In the next data set the test system is HaCat cell lines. As to the kind of experiment: Toxicity against HaCat cell line. In kind it is cell-based.
Another data set concerns PBMC. As to the kind of experiment: Toxicity against PBMC. Format: cell-based.
In data set [3] the target is T2, hNcl (Homo sapiens, UniProt P19338). The experiment in a line: CETSA-based EC50 determination in HeLa cells. Format: cell-based. Also noted: endogenous in cells; host or cells: HeLa (cervical carcinoma). The following applies: 2 h, heated at 55.5 °C, read-out: EC50 (concentration producing half of the maximum effect on hNcl stabilization). The method, then: The 12/hNcl interaction was also investigated using CETSA and its effect on the hNcl denaturation temperature (Tm) in the cells was analyzed. HeLa cells incubated with 12, oridonin or the vehicle were heated to different temperatures in the 38–61 °C range, and the amount of soluble hNcl remaining at each T value was measured. […] Further CETSAs were performed using various concentrations of the compound (1–20 μM) and the amount of hNcl resisting thermal denaturation at 55.5 °C was then reported in a graph as a function of the concentration of 12 used (Figure S3 and Figure 1E). This experiment allowed the calculation of an EC50 (the compound concentration producing half of the maximum effect on hNcl stabilization) of 5 μM.
HeLa cells were seeded at 1.0 × 10^5 in 12-well plates. The treatment was performed for 2 h using compound 12 at the following concentrations: 0.1, 0.5, 1, 2, 5, 10, 15, and 20 μM. Subsequently, the drug-containing media were removed through centrifugation; the cells were washed with PBS, aliquoted in 0.2 mL tubes, and then heated at 55.5 °C (Tm of hNcl) for 3 min. They were then lysed and analyzed, as reported above. The hNcl/Gapdh density ratio measured at the […] concentration producing the maximum stabilizing effect was set as 100%.
Target sequence in this assay (P19338 whole entry): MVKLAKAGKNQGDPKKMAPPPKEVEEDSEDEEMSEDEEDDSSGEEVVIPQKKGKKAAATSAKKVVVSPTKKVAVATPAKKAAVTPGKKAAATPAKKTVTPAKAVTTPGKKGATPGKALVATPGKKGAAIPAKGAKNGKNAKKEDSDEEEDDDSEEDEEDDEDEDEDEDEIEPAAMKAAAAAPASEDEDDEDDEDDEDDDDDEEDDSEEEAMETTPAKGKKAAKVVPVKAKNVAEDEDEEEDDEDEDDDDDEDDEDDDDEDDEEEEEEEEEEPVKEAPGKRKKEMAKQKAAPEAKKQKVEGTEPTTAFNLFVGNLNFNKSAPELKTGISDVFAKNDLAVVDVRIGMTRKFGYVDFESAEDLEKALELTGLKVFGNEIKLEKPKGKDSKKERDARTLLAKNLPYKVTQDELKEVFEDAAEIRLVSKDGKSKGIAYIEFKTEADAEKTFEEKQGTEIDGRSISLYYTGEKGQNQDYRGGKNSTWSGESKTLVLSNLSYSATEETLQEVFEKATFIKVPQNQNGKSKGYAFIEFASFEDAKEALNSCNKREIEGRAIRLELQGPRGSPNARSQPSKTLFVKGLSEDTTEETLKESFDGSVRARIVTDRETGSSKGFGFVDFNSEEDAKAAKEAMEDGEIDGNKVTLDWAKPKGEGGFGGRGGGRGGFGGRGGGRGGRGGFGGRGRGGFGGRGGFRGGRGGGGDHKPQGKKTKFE

The test system of data set [4] is HeLa cells. The experiment in a line: MTT-based proliferation assay, HeLa cells. In kind it is cell-based. The following applies: Homo sapiens, 48 h, read-out: IC50, inhibition of proliferation (MTT). The method, then: HeLa cells were seeded at 1 × 10^4 cells/well in 96-well plates. The day after the cells were incubated for 48 h with different concentrations of compounds (10–100) μM. The number of viable cells was quantified by MTT ([3-(4,5-dimethylthiazol-2-yl)-2,5-diphenyl tetrazolium bromide]) assay. Absorption at 550 nm for each well was assessed using a microplate reader (LabSystems, Vienna, VA, USA). Half maximal inhibitory concentration (IC50) values were calculated from cell viability dose–response curves and defined as the concentration resulting in 50% inhibition of cell survival as compared to controls.

Data set [5] relates to HeLa cells. As to the kind of experiment: Protein neo-synthesis in HeLa cells. In kind it is cell-based, human. The following applies: 20 μM.
Data set [6] relates to hNcl. The experiment in a line: Western blot of hNcl and phosphorylated hNcl in HeLa cells. The following applies: cancer cells. In kind it is cell-based, human. The source says:
Finally, we determined whether the treatment with 12 could affect hNcl expression, phosphorylation, and cellular localization.
(Immunoblotting shows a protein as a band on a membrane.)

The target in data set [7] is T2, hNcl. The experiment in a line: DARTS experiment in HeLa cells. The arrangement: endogenous in cells; host or cells: HeLa (cervical carcinoma). Format: cell-based. The following applies: 5 or 20 μM, 2 h, subtilisin. Here is the method:
HeLa cells were seeded at 1.5 × 10^6 in 100 mm culture dishes and treated with compound 12 (5 or 20 μM) or 0.1% DMSO for 2 h at 37 °C. The HeLa cells were lysed in RIPA buffer (10 mM Tris HCl pH 7.6, 1 mM EDTA, 1% Triton X-100, 0.1% sodium deoxycholate, 0.1% SDS, 140 mM sodium chloride and 1 mM PMSF) supplemented with phosphatase inhibitors. The samples underwent proteolysis with subtilisin (enzyme:lysate 1:6000 w/w) for 30 min, and hydrolysis was stopped by adding Laemmli buffer 4× and incubating the mixture at 95 °C for 5 min. Finally, the samples were fractionated via SDS-PAGE and analyzed by Western blot. Densitometry of bands was performed with the ImageJ software. Experiments were performed in triplicate.
Target sequence in this assay (P19338 2-710): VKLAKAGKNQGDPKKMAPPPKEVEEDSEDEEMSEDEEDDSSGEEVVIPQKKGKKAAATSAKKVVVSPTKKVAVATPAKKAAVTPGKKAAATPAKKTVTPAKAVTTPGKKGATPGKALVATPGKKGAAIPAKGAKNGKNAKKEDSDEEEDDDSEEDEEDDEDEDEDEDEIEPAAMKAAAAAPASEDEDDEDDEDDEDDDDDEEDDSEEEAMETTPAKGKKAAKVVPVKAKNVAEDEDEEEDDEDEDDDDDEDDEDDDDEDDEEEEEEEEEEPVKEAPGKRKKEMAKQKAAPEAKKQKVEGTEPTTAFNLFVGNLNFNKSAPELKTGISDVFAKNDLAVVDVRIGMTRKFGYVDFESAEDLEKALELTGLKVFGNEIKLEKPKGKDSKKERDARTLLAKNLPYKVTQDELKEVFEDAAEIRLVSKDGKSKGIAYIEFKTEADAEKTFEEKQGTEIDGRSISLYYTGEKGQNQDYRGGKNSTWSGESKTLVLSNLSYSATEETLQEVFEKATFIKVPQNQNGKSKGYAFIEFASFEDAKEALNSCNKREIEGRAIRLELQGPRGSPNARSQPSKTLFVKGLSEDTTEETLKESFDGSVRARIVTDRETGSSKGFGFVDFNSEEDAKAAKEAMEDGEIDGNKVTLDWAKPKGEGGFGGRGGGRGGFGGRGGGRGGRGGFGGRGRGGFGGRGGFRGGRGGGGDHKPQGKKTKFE

The target in data set [8] is T2, hNcl. The experiment in a line: Surface plasmon resonance with immobilized hNcl. Format: binding. The following applies: SPR, 25 °C. Here is the method: as §1
Target sequence in this assay (P19338 whole entry): as the sequence (P19338 whole entry) above

The structures appear in SMILES notation.

Here are results for one compound from publication PMC9570042, “Impairment of Nucleolin Activity and Phosphorylation by a Trachylobane Diterpene from Psiadia punctulata in Cancer Cells” (International Journal of Molecular Sciences, 2022).

T1 sequence (P19338 300-466 limits assumed): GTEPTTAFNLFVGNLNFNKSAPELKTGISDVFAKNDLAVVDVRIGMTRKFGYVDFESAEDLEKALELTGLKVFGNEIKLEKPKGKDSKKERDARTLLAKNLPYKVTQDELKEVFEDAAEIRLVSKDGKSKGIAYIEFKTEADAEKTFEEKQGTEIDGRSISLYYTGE

Take `CC1(CO)CCCC2(C)C1C(O)CC13CC4C(CC12)C4(C(=O)O)C3` (stereo not drawn) [compound 12, 6,19-dihydroxy-ent-trachiloban-17-oic acid]: in data set [1], the KD was determined as 0.074 ± 0.005 µM. Besides, the koff was 0.0053 ± 0.009 s⁻¹ in data set [1] and 0.0037 ± 0.005 s⁻¹ on hNcl [8]. Moreover, in the data set on HeLa cells [2], the “cell accumulation in the subG0/G1 phase” value is on record as “dose-dependent manner”. Also, in the data set on Akt, the “levels of Akt protein” value is given as “significantly lowers”. The “toxicity: concentration up to which no toxicity was observed” value in the data set on HaCat cell lines and in the data set with PBMC was above 100 µM throughout. On hNcl [3], the EC50 worked out at 5 µM. The IC50 in the data set on HeLa cells [4] was found to be 25 µM. For the same compound, the “protein neo-synthesis vs untreated cells” value in the data set with HeLa cells [5] was “no significant differences”. Also, the hNcl levels entry in the data set with hNcl [6] (20 μM, 4, 6, or 16 h) was “did not modify”. Further, the “phosphorylation of hNcl” value in the data set with hNcl [6] (20 μM, 4 h treatment) is “inhibited”. The “hNcl resistance to protease action (DARTS)” value on hNcl [7] is reported as “significant increase”. For the same compound, the Kd on hNcl [8] (read-out: dissociation constant (KD)) stood at 0.058 ± 0.003 µM.

The term KD denotes the concentration at which binding is half-saturated. Higher therefore signals weaker binding. One may read the koff as the rate constant with which the complex falls apart. By Kd is commonly meant the concentration at which binding is half-saturated.
